Consider ten compounds from US7423159B2, “Agent for preventing or treating neuropathy” (Takeda Pharmaceutical Company Limited, priority 2002, dated 2008).

The test system of one data set is PC12 cells. Nature of the data set: neuroprotective action (neurite network formation) in PC12 cells. The format is cell-based. To be noted: test compound 0.3-3.0 μmol/L, two days, DMEM with 0.5% FCS and 2 ng/mL NGF; observed under a microscope. Here is the method: Using PC12 cells, the neuroprotective action of the compound of the present invention was evaluated.
PC12 cells were precultured for one day in a DMEM (Dulbecco's Modified Eagle's Medium) culture solution containing 10% FCS (Fetal Calf Serum) in an incubator at 37° C., 5% CO2, and seeded at 5×10^3/well in a 24 well plate (Falcon) in the same medium. After the cells adhered to the bottom surface, the culture was changed to a DMEM culture solution containing 0.5% FCS and 2 ng/mL of NGF (Wako Pure Chemical Industries, Ltd.). After culturing overnight, the test compound was added at a concentration of 0.3-3.0 μmol/L and the cells were cultured for two more days. Gultalaldehyde was added to the cultured to a final concentration of 2% and the cells were fixed for 1 hr., after which stained with a Diff-Quick (International Reagents Corporation). The cells were washed, dried with air and observed under a microscope.

Another data set has as its system rat C6 glioma cells. Nature of the data set: GDNF production promoting action in rat C6 glioma cells (ELISA of culture supernatant). To be noted: Rattus norvegicus, C6 glioma, 48 h; concentration which causes 50% increase of GDNF relative to the control group; cultured 2 days with test compound; GDNF in culture supernatant by ELISA. The format is cell-based. Here is the method:
Using rat C6 glioma cells, the GDNF production promoting action of the compound of the present invention was evaluated.
Rat C6 glioma cells (ATCC) were grown in Dulbecco's Modified Eagle's Medium (DMEM) containing 10% FBS (Fetal Bovine Serum) in a collagen type 1 coated 75 cm^2 culture flask (SUMITOMO BAKELITE Co., Ltd.) until near confluent, detached by trypsin treatment and washed once with DMEM containing 10% FBS.
The cells after washing were diluted with 10% FBS-containing DMEM to a concentration of 5×10^4/mL and seeded at 0.3 mL/well in each well of collagen type 1 coated 48 well culture dish (SUMITOMO BAKELITE Co., Ltd.). After 3 days, the culture in the culture dish was placed in a 1% BSA (bovine serum albumin, Sigma)-containing DMEM medium supplemented with various concentrations of test compound, and further cultured for 2 days. The culture supernatant was recovered and preserved at −80° C. until measurement of GDNF.
The content of GDNF in the culture supernatant was measured by the following ELISA Method.
Anti-GDNF antibody (MAB212, R&D) was diluted with TBS (Tris buffered physiological saline: 25 mmol/L Tris-HCl (pH 8.0), 150 mmol/L NaCl) to 2 μg/mL and dispensed at 0.1 mL/well to each well of a 96-well immunoplate. The 96-well immunoplate was incubated overnight at 4° C. and washed once with TBS containing Tween 20 at 0.05% (hereinafter to be abbreviated as TBST). A blocking solution (TBS containing 1% BSA and 5% sucrose) was added at 0.2 mL/well to each well after washing, and the plate was incubated at room temperature for 1 hr., after which each well was washed twice with TBST. The culture supernatant (0.1 mL) of the aforementioned C6 cells was added to each well after washing and the plate was incubated at room temperature for 3 hrs., after which the wells were washed 5 times with TBST. The 500-fold diluted anti-GDNF antibody (G2791, Promega) was added by 0.1 mL to each well after washing, incubated at room temperature for 2 hrs. and washed 5 times with TBST. A 5000-fold diluted horseradish peroxidase-labeled anti-chicken IgY antibody (G1351, Promega) was added at 0.1 mL/well to each well after washing, incubated at room temperature for 2 hrs. and washed 5 times with TBST. A substrate solution (TMB substrate solution, BIO-RAD) was added at 0.1 mL/well to each well after washing and allowed to develop color at room temperature for 8 min. To stop the reaction, 0.1 mL of 1 mol/L phosphoric acid was added to each well in coloring developing reaction. The absorbance of the reaction solution at 450 nm wavelength was measured.
In the same manner as above except the test compound was not used, the ELISA Method was performed and this was used as a control group.
Using various concentrations of GDNF (Promega), ELISA Method was performed in the same manner as above and standard line was prepared.
From the aforementioned absorbance and standard line, GDNF content in a sample was calculated and the concentration (EC50), which causes 50% increase of GDNF relative to the control group was calculated from the regression line.

pEC50: −log10 of the molar value.

In the case of `CCOP(=O)(Cc1ccc(NC(=O)/C=C/c2cnn(C)c2-c2cccs2)cc1)OCC` [Example 149, Diethyl [4-({(2E)-3-[1-methyl-5-(2-thienyl)-1H-pyrazol-4-yl]prop-2-enoyl}amino)benzyl]phosphonate], the melting point – broadly, the temperature of the solid-liquid transition – is 262 to 263 °C. The “formation of neurite network” value in the data set with PC12 cells is reported as “promoted formation of neurite network”. The pEC50 (as a rule, the negative decadic logarithm of the EC50, by convention in mol/L) in the data set with rat C6 glioma cells was 6.29.
As for `Cn1ncc(/C=C/C(=O)Nc2ccc(CN3CCOCC3)cc2)c1-c1ccc(F)cc1` [Example 192, (2E)-3-[5-(4-Fluorophenyl)-1-methyl-1H-pyrazol-4-yl]-N-[4-(4-morpholinylmethyl)phenyl]acrylamide], the melting point fell in the range of 202 to 203 °C. In the data set on PC12 cells, the “formation of neurite network” value is “promoted formation of neurite network”. Besides, the negative-log EC50 (pEC50) with rat C6 glioma cells is 6.27.
For `Cn1ncc(/C=C/C(=O)Nc2ccc(C(O)c3ccccn3)cc2)c1-c1ccc(F)cc1` (centres unmarked) [Example 49, (2E)-3-[5-(4-Fluorophenyl)-1-methyl-1H-pyrazol-4-yl]-N-{4-[hydroxy(2-pyridinyl)methyl]phenyl}acrylamide], the “formation of neurite network” value in the data set with PC12 cells is recorded as “promoted formation of neurite network”. In the data set on rat C6 glioma cells, this compound showed a negative logarithm of the EC50 (pEC50) of 5.80.
`CCS(=O)(=O)Cc1ccc(NC(=O)/C=C/c2cnn(C)c2-c2ccc(F)cc2)cc1` [Example 223, (2E)-N-{4-[(Ethylsulfonyl)methyl]phenyl}-3-[5-(4-fluorophenyl)-1-methyl-1H-pyrazol-4-yl]acrylamide] gave a melting point of 257 to 258 °C. The “formation of neurite network” value in the data set with PC12 cells was “promoted formation of neurite network”. The negative logarithm of the EC50 (pEC50) in the data set on rat C6 glioma cells was 7.44.
`CCOP(=O)(Cc1ccc(NC(=O)/C=C/c2cnn(C)c2-c2ccc(F)cc2)cc1)OCC` [Example 2, (2E)-N-[4-(Diethylphosphonomethyl)phenyl]-3-[5-(4-fluorophenyl)-1-methyl-1H-pyrazol-4-yl]acrylamide]: in the data set with PC12 cells, the “formation of neurite network” value is reported as “promoted formation of neurite network”. The same compound showed a negative-log EC50 (pEC50) with rat C6 glioma cells of 6.40.
Compound `Cn1ncc(/C=C/C(=O)Nc2ccc(CS(C)(=O)=O)cc2)c1-c1ccc(F)cc1` [Example 222, (2E)-3-[5-(4-fluorophenyl)-1-methyl-1H-pyrazol-4-yl]-N-(4-[(methylsulfonyl)methyl]phenyl)acrylamide] yielded a melting point of 251 to 252 °C. For the same compound, in the data set with PC12 cells, the “formation of neurite network” value is recorded as “promoted formation of neurite network”. In the data set with rat C6 glioma cells, this compound gave a negative-log EC50 (pEC50) of 6.92.
Turning to `Cn1ncc(/C=C/C(=O)Nc2ccc(Cn3ccnc3)cc2)c1-c1ccc(F)cc1` [Example 159, (2E)-3-[5-(4-fluorophenyl)-1-methyl-1H-pyrazol-4-yl]-N-[4-(1H-imidazol-1-ylmethyl)phenyl]acrylamide], the melting point was 213 to 214 °C. Moreover, in the data set on PC12 cells, the “formation of neurite network” value is recorded as “promoted formation of neurite network”. Also, the pEC50 with rat C6 glioma cells was 6.92.
`Cn1ncc(/C=C/C(=O)Nc2ccc(Cn3cncn3)cc2)c1-c1ccc(F)cc1` [Example 163, (2E)-3-[5-(4-Fluorophenyl)-1-methyl-1H-pyrazol-4-yl]-N-[4-(1H-1,2,4-triazol-1-ylmethyl)phenyl]acrylamide] came in with a melting point of 225 to 226 °C. The compound also gave a negative logarithm of the EC50 (pEC50) in the data set with rat C6 glioma cells of 6.72.
`Cn1ncc(/C=C/C(=O)Nc2ccc(Cn3cccn3)cc2)c1-c1ccc(F)cc1` [Example 161, (2E)-3-[5-(4-Fluorophenyl)-1-methyl-1H-pyrazol-4-yl]-N-[4-(1H-pyrazol-1-ylmethyl)phenyl]acrylamide] registered a melting point of 189 to 191 °C. In the data set with PC12 cells, the “formation of neurite network” value is reported as “promoted formation of neurite network”. The pEC50 in the data set on rat C6 glioma cells is 6.89.
On to `CC(=O)Cc1ccc(NC(=O)/C=C/c2cnn(C)c2-c2ccc(F)cc2)cc1` [Example 121, (2E)-3-[5-(4-Fluorophenyl)-1-methyl-1H-pyrazol-4-yl]-N-[4-(2-oxopropyl)phenyl]acrylamide], for which the melting point fell in the range of 186 to 187 °C. In the data set on rat C6 glioma cells, this compound had a negative logarithm of the EC50 (pEC50) of 6.74.
